Test results from PubChem BioAssay (NCI).
“And” between values parts separate entries of the source, which are not always exact repeats. Identical values can stand only once.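 Cultured in 96-well plates, cells were exposed to test compound for 48 hours across five concentrations. GI50 marks 50% less growth. TGI denotes the concentration required for complete inhibition of growth.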

Experiments:
Experiment in all cases: growth of human tumour cells (NCI), 48 h
[1] = test system: HCT-15 colon
[2] = test system: HOP-62 NSCLC
[3] = test system: LOX IMVI melanoma
[4] = test system: NCI/ADR-RES ovarian
[5] = test system: OVCAR-3 ovarian
[6] = test system: PC-3 prostate
[7] = test system: SF-539 CNS
[8] = test system: UO-31 renal

Structure (SMILES)	GI50 [1]	TGI [1]	GI50 [2]	TGI [2]	GI50 [3]	TGI [3]	GI50 [4]	TGI [4]	GI50 [5]	TGI [5]	GI50 [6]	TGI [6]	GI50 [7]	TGI [7]	GI50 [8]	TGI [8]
Nc1nc(-c2ccc(F)cc2)c(-c2ccc3ncccc3n2)s1	14.1 µM	> 25 µM	24.9 µM	> 25 µM	18 µM	> 25 µM	21.7 µM	> 25 µM	12.7 µM	> 25 µM	13.5 µM	> 25 µM	14.4 µM	> 25 µM	4.68 µM	> 25 µM
CN(CC(=O)N(Cc1ccc(C2CCCCC2)cc1)c1ccc(C(=O)O)c(O)c1)S(=O)(=O)c1c(F)c(F)c(F)c(F)c1F	2.08 µM	4.43 µM	13.4 µM	30.4 µM	1.6 µM	3.01 µM	17.2 µM	38.1 µM	9.95 µM	23.3 µM	12.2 µM	27.7 µM	18.2 µM	35 µM	12 µM	25.8 µM
COc1ccc(-c2nc3ccccn3c2/C=C/C(=O)c2cc(OC)c(OC)c(OC)c2)cc1	4.85 µM	> 100 µM	36.2 µM	> 100 µM	6.05 µM	> 100 µM	3.36 µM	29.4 µM	2.88 µM	9.67 µM	19.8 µM	> 100 µM	2.39 µM	11.5 µM	1.31 µM	> 100 µM
COc1ccc(OC)c(/C=C(/C)[N+](=O)[O-])c1	1.74 µM	3.68 µM	2.31 µM	4.86 µM	1.34 µM	3.06 µM	3.22 µM	11.5 µM	1.81 µM	3.27 µM	2.4 µM	5.63 µM	2.29 µM	5.04 µM	1.42 µM	2.8 µM
NC(=O)c1ccc2nc(-c3ccc(Oc4ccc(Cl)cc4)cc3)[nH]c2c1	23.6 µM and 12.6 µM	75 µM and 31 µM	48.4 µM and 13.7 µM	75 µM and 36.1 µM	17.9 µM and 15.6 µM	75 µM and 36.7 µM	> 75 µM and 13.3 µM	> 75 µM and 32.9 µM	20.8 µM and 14.4 µM	75 µM and 34.8 µM	55.3 µM and 11.2 µM	75 µM and 25.5 µM	27.6 µM and 13 µM	75 µM and 28 µM	30 µM and 24.1 µM	75 µM and > 100 µM
C[C@@H](CO)[C@@H]1CCC=C2CC[C@]3(C)[C@H](CC[C@@H]4[C@@]5(C)CCCNC(C)(C)[C@@H]5CC[C@]43C)[C@H]21	1.49 µM	2.99 µM	2.08 µM	4.21 µM	1.74 µM	3.17 µM	2.05 µM	4.45 µM	2.16 µM	4.87 µM	2.97 µM	13.4 µM	3.48 µM	14.6 µM	2.21 µM	6.8 µM
COc1cc(Nc2ccnc(NCCCNc3ccnc4cc(Cl)ccc34)n2)cc(OC)c1	1.51 µM	3.09 µM	1.75 µM	5.12 µM	1.37 µM	2.82 µM	2.9 µM	12.5 µM	1.95 µM	4.32 µM	2.68 µM	14.2 µM	1.58 µM	3.09 µM	1.37 µM	2.79 µM
CCN(C(=O)c1cc(F)ccc1Oc1cncnc1N1CC2(CCN(CC3CCC(NS(=O)(=O)CC)CC3)CC2)C1)C(C)C (stereo unspecified)	> 100 µM	> 100 µM	> 100 µM	> 100 µM	> 100 µM	> 100 µM	> 100 µM	> 100 µM	> 100 µM	> 100 µM	> 100 µM	> 100 µM	> 100 µM	> 100 µM	> 100 µM	> 100 µM
Nc1nc(-c2ccccc2)nc(N)c1N=O	3.03 µM	11.1 µM	12.8 µM	30.5 µM	3.14 µM	13 µM	6.44 µM	59.6 µM	4.17 µM	14 µM	18.6 µM	66.3 µM	5.69 µM	19.5 µM	10 µM	29.2 µM
O=C(O)c1cccc(N=Nc2c(S(=O)(=O)O)ccc3c2C(=O)c2ccccc2C3=O)c1O		> 100 µM		> 100 µM		> 100 µM		> 100 µM		> 100 µM		> 100 µM		> 100 µM		> 100 µM
COc1cc(O)c(C(=O)/C=C/c2ccc(O)cc2)c(O)c1[C@@H]1C[C@H](CCc2ccc(O)cc2)O[C@H](c2ccc(O)cc2)C1	3.43 µM	11.9 µM	3.17 µM	11.2 µM	2.93 µM	8.37 µM	3.72 µM	14.4 µM	4.18 µM	21 µM	3.37 µM	12.5 µM	2.61 µM	7.4 µM	3.17 µM	14.1 µM
NC(=O)c1cc(-c2ccc(F)cc2)cc(-c2ccncc2)c1N	> 25 µM	> 25 µM	> 25 µM	> 25 µM	> 25 µM	> 25 µM	> 25 µM	> 25 µM	> 25 µM	> 25 µM	> 25 µM	> 25 µM	> 25 µM	> 25 µM	7.88 µM	> 25 µM
CCn1cc(C(=O)O)c(=O)c2cc3c(cc21)S(=O)(=O)CC3		> 100 µM		> 100 µM		> 100 µM		> 100 µM		> 100 µM		> 100 µM		> 100 µM		> 100 µM
COc1cc(OC)c(/C=C/c2cnc3ccccc3n2)c(OC)c1		> 10 µM		> 10 µM		> 10 µM		> 10 µM		> 10 µM		> 10 µM		> 10 µM		1.56 µM
Cn1ccnc1C(=O)/C=C/c1ccccc1	2.77 µM	13.8 µM	4.44 µM	14.4 µM	2.99 µM	14.3 µM	3.11 µM	8.95 µM	3.22 µM	8.5 µM	12.5 µM	37.4 µM	2.18 µM	4.78 µM	4.69 µM	71.4 µM
